This assay deals with T1, Recombinant Human EphA2 Fc Protein (Homo sapiens, UniProt P29317).
T1 construct: purchased Elabscience
Put plainly: Interaction analysis (kinetics, KD) of peptides and conjugates against EphA2 by SPR, Biacore T200, single-cycle kinetics (Examples B15 and B22). The format is binding. On the procedure: Example B15. Interaction Analysis by SPR was Performed Using Biacore (Cytiva)
SPR assay was performed using Biacore T200 (Cytiva).
The HBS-P+ buffer (10 mM HEPES (pH7.4), 150 mM NaCl, 0.05% (v/v) Surfactant P20) containing 1% DMSO was used as running buffer. Recombinant Human EphA2 Fc Protein (Fc tag, Elabscience) was captured by Human Antibody Capture kit (Cytiva). Peptide samples in DMSO were diluted with running buffer, and prepared five serial dilutions. Using these serial dilutions, kinetics of peptides against EphA2 was measured at a flow rate of […] at 25 °C. The method adopted for sample measurement was a single-cycle kinetics method. The analysis was conducted using the evaluation software 3.0 provided with Biacore T200. Kinetics fitting was done on the difference data obtained by subtracting the baseline data from sample measurement data. KD values were calculated based on the association rate constant (ka) and dissociation rate constant (kd).
Example B22: Interaction Analysis of Conjugates by SPR was Performed Using Biacore (Cytiva)
SPR assay was performed using Biacore T200 (Cytiva) according to Example B15.
(Surface plasmon resonance follows binding to a sensor surface in real time, without labels.)

Where [1] appears, read: conjugates, Biacore T200 according to Example B15, Table B16, read-out: SPR Kd.

Where two headings read alike, the source gives them in different places. Numbered stars: 1 amine (or outer) side, 2 acyl side, 3 side chain; on linkers, the order of the positions; unused ones are H or OH. Bridge positions count the residues as written; N and C are the ends. Square brackets hold non-standard residues; d marks the D form. Side chains are listed from the residue outwards. Peptide text beside a SMILES is read from it. * marks the point of attachment. DOTA(Lu) = O=C1CN2CCN3CCN(CC(=O)*)CCN(CC2)CC(=O)[O][Lu]([O]1)[O]C(=O)C3; NH(1-deoxy-D-glucityl) = OC[C@@H](O)[C@@H](O)[C@H](O)[C@@H](O)CN*; X4 = CC(C)(C)C[C@H](CNCCCC[C@H](N[*:1])C(=O)[*:2])N[*:3]; DOTA = O=C(O)CN1CCN(CC(=O)O)CCN(CC(=O)*)CCN(CC(=O)O)CC1; Trp(1-Me,7-Cl) = Cn1cc(C[C@H](N)C(=O)O)c2cccc(Cl)c21; dPhe(3-CONH2) = NC(=O)c1cccc(C[C@@H](N)C(=O)O)c1; Piperazinyl(4-CH2COOH) = O=C(O)CN1CCN(*)CC1; Trp(1-Me) = Cn1cc(C[C@H](N)C(=O)O)c2ccccc21; NMe3Pal = CN[C@@H](Cc1cccnc1)C(=O)O; NMeF = CN[C@@H](Cc1ccccc1)C(=O)O; hCit = NC(=O)NCCCC[C@H](N)C(=O)O; Gly(cBu) = N[C@H](C(=O)O)C1CCC1; NMeE = CN[C@@H](CCC(=O)O)C(=O)O; Aad = N[C@@H](CCCC(=O)O)C(=O)O; NMeN = CN[C@@H](CC(N)=O)C(=O)O; CO = O=C([*:1])[*:2]

Among the data in patent US20260364215A1, “Radiopharmaceutical Compositions Targeting Ephrin Type-A Receptor 2 and Uses Thereof” (PeptiDream Inc., priority 2022, published 2026) are Kd values, retold here.

What is called Kd is the concentration at which binding is half-saturated.

T1 sequence (P29317 24-534 limits assumed): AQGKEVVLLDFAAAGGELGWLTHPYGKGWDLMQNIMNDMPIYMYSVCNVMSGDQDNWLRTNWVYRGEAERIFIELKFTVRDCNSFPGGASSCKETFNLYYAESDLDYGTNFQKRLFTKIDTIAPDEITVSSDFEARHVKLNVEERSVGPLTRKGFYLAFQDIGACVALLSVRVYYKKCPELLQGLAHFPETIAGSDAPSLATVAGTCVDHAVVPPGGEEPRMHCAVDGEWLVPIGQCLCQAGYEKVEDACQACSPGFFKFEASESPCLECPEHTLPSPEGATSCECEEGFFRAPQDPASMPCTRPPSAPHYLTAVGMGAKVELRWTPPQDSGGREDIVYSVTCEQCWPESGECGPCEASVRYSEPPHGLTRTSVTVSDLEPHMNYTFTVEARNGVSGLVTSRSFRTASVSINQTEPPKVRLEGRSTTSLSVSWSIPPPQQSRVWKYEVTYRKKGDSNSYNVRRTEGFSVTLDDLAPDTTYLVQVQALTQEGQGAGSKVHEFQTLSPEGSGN

Regarding `C[C@H]1NC(=O)CSC[C@@H](C(N)=O)NC(=O)[C@H](CCCCNC[C@@H](CC(C)(C)C)NC(=O)CN2CCN3CCN4CCN(CC2)CC(=O)[O][Lu]([O]C(=O)C3)[O]C(=O)C4)NC(=O)[C@H]([C@@H](C)O)NC(=O)[C@H](Cc2cn(C)c3ccccc23)NC(=O)[C@H](CCCCNC(=O)N2CCN(CC(=O)O)CC2)NC(=O)[C@H](Cc2cn(C)c3ccccc23)NC(=O)[C@H](CCC(=O)O)N(C)C(=O)[C@H](CCCC(N)=O)NC(=O)[C@H](C2CCC2)NC(=O)[C@H](CC(N)=O)NC(=O)[C@H](Cc2cccnc2)N(C)C1=O` [PDC_EphA2-00027131] ({CH2CO}-[dA][NMe3Pal]N[Gly(cBu)][Aad](NH2)[NMeE][Trp(1-Me)]K([CO-Piperazinyl(4-CH2COOH)])[Trp(1-Me)]T[X4](DOTA(Lu))C-NH2; thioether N-12), the Kd is less than 1 nM. On the same count and under the same terms, with `CC(C)C[C@@H]1NC(=O)[C@H](CC(N)=O)NC(=O)[C@H](Cc2cccnc2)N(C)C(=O)[C@@H](Cc2cccc(C(N)=O)c2)NC(=O)CSC[C@@H](C(N)=O)NC(=O)[C@H](CCCC(N)=O)NC(=O)[C@H]([C@@H](C)O)NC(=O)[C@H](Cc2cn(C)c3ccccc23)NC(=O)[C@H](CCCCNC(=O)CN2CCN3CCN4CCN(CC2)CC(=O)[O][Lu]([O]C(=O)C3)[O]C(=O)C4)NC(=O)[C@H](Cc2cn(C)c3c(Cl)cccc23)NC(=O)[C@H](CC(N)=O)N(C)C(=O)[C@H](CCCC(N)=O)NC1=O` [PDC_EphA2-00026715] ({CH2CO}-[dPhe(3-CONH2)][NMe3Pal]NL[Aad](NH2)[NMeN][Trp(1-Me,7-Cl)]K(DOTA(Lu))[Trp(1-Me)]T[Aad](NH2)C-NH2; thioether N-12) the figure was less than 1 nM.

As for `CC(C)C[C@@H]1NC(=O)[C@H](CC(N)=O)NC(=O)[C@H](Cc2cccnc2)N(C)C(=O)[C@@H](Cc2cccc(C(N)=O)c2)NC(=O)CSC[C@@H](C(N)=O)NC(=O)[C@H](CC(N)=O)NC(=O)[C@H]([C@@H](C)O)NC(=O)[C@H](Cc2cn(C)c3ccccc23)NC(=O)[C@H](CCC(=O)NC[C@H](O)[C@@H](O)[C@H](O)[C@H](O)CO)NC(=O)[C@H](Cc2cn(C)c3c(Cl)cccc23)NC(=O)[C@H](Cc2cccnc2)N(C)C(=O)[C@H](CC(N)=O)NC1=O` [PDC_EphA2-00026424] ({CH2CO}-[dPhe(3-CONH2)][NMe3Pal]NLN[NMe3Pal][Trp(1-Me,7-Cl)]E(NH(1-deoxy-D-glucityl))[Trp(1-Me)]TNC-NH2; thioether N-12), the equilibrium dissociation constant (Kd) (peptides, Biacore T200, 25 °C, Table B12, read-out: SPR Kd) is less than 1 nM. Consider `CC(C)C[C@@H]1NC(=O)[C@H](CC(N)=O)NC(=O)[C@H](Cc2cccnc2)N(C)C(=O)[C@@H](Cc2cccc(C(N)=O)c2)NC(=O)CSC[C@@H](C(=O)N[C@@H](CCCCNC(=O)CN2CCN3CCN4CCN(CC2)CC(=O)[O][Lu]([O]C(=O)C3)[O]C(=O)C4)C(N)=O)NC(=O)[C@H](Cc2cn(C)c3ccccc23)NC(=O)[C@H](CCCCNC(N)=O)NC(=O)[C@H](Cc2cn(C)c3c(Cl)cccc23)NC(=O)[C@H](Cc2ccccc2)N(C)C(=O)[C@H](CO)NC1=O` [PDC_EphA2-00026600-C301] ({CH2CO}-[dPhe(3-CONH2)][NMe3Pal]NLS[NMeF][Trp(1-Me,7-Cl)][hCit][Trp(1-Me)]CK(DOTA(Lu))-NH2; thioether N-10), for which the Kd was less than 1 nM. Take `C[C@@H](O)[C@@H]1NC(=O)[C@H](Cc2cn(C)c3ccccc23)NC(=O)[C@H](CCC(=O)NC[C@H](O)[C@@H](O)[C@H](O)[C@H](O)CO)NC(=O)[C@H](Cc2cn(C)c3c(Cl)cccc23)NC(=O)[C@H](Cc2cccnc2)N(C)C(=O)[C@H](CCCC(N)=O)NC(=O)[C@H](C2CCC2)NC(=O)[C@H](CC(N)=O)NC(=O)[C@H](Cc2cccnc2)N(C)C(=O)[C@@H](Cc2cccc(C(N)=O)c2)NC(=O)CSC[C@@H](C(=O)N[C@H](CCCCNC(=O)CN2CCN(CC(=O)O)CCN(CC(=O)O)CCN(CC(=O)O)CC2)C(=O)O)NC(=O)[C@H](CCCC(N)=O)NC1=O.[Lu+3]` [PDC_EphA2-00026774] ({CH2CO}-[dPhe(3-CONH2)][NMe3Pal]N[Gly(cBu)][Aad](NH2)[NMe3Pal][Trp(1-Me,7-Cl)]E(NH(1-deoxy-D-glucityl))[Trp(1-Me)]T[Aad](NH2)C[dK](DOTA)-OH; thioether N-12): under setting [1], the Kd was less than 1 nM. Still for that read-out and setting: for `C[C@@H](O)[C@@H]1NC(=O)[C@H](Cc2cn(C)c3ccccc23)NC(=O)[C@H](CCCCNC(=O)N2CCN(CC(=O)O)CC2)NC(=O)[C@H](Cc2cn(C)c3c(Cl)cccc23)NC(=O)[C@H](CCC(=O)O)N(C)C(=O)[C@H](CCCCNC(=O)CN2CCN(CC(=O)O)CCN(CC(=O)O)CCN(CC(=O)O)CC2)NC(=O)[C@H](C2CCC2)NC(=O)[C@H](CC(N)=O)NC(=O)[C@H](Cc2cccnc2)N(C)C(=O)[C@@H](Cc2cccc(C(N)=O)c2)NC(=O)CSC[C@@H](C(=O)N[C@H](CCC(=O)O)C(=O)O)NC(=O)[C@H](CCCC(N)=O)NC1=O.[Lu+3]` [PDC_EphA2-00027104] ({CH2CO}-[dPhe(3-CONH2)][NMe3Pal]N[Gly(cBu)]K(DOTA)[NMeE][Trp(1-Me,7-Cl)]K([CO-Piperazinyl(4-CH2COOH)])[Trp(1-Me)]T[Aad](NH2)C[dE]-OH; thioether N-12) the value was less than 1 nM. With `C[C@@H](O)[C@@H]1NC(=O)[C@H](Cc2cn(C)c3ccccc23)NC(=O)[C@H](CCC(=O)NC[C@H](O)[C@@H](O)[C@H](O)[C@H](O)CO)NC(=O)[C@H](Cc2cn(C)c3c(Cl)cccc23)NC(=O)[C@H](CC(N)=O)N(C)C(=O)[C@H](CCCC(N)=O)NC(=O)[C@H](C2CCC2)NC(=O)[C@H](CC(N)=O)NC(=O)[C@H](Cc2cccnc2)N(C)C(=O)[C@@H](Cc2cccc(C(N)=O)c2)NC(=O)CSC[C@@H](C(=O)N[C@H](CCCCNC(=O)CN2CCN3CCN4CCN(CC2)CC(=O)[O][Lu]([O]C(=O)C3)[O]C(=O)C4)C(N)=O)NC(=O)[C@H](CCCC(N)=O)NC1=O` [PDC_EphA2-00022593-C302] ({CH2CO}-[dPhe(3-CONH2)][NMe3Pal]N[Gly(cBu)][Aad](NH2)[NMeN][Trp(1-Me,7-Cl)]E(NH(1-deoxy-D-glucityl))[Trp(1-Me)]T[Aad](NH2)C[dK](DOTA(Lu))-NH2; thioether N-12), the Kd was less than 1 nM. Consider `CC(C)C[C@@H]1NC(=O)[C@H](CC(N)=O)NC(=O)[C@H](Cc2cccnc2)N(C)C(=O)[C@@H](Cc2cccc(C(N)=O)c2)NC(=O)CSC[C@@H](C(N)=O)NC(=O)[C@H](CCCCNC(=O)CN2CCN(CC(=O)O)CCN(CC(=O)O)CCN(CC(=O)O)CC2)NC(=O)[C@H]([C@@H](C)O)NC(=O)[C@H](Cc2cn(C)c3ccccc23)NC(=O)[C@H](CCCCNC(=O)N2CCN(CC(=O)O)CC2)NC(=O)[C@H](Cc2cn(C)c3c(Cl)cccc23)NC(=O)[C@H](CCC(=O)O)N(C)C(=O)[C@H](CCCC(N)=O)NC1=O.[Lu+3]` [PDC_EphA2-00026719] ({CH2CO}-[dPhe(3-CONH2)][NMe3Pal]NL[Aad](NH2)[NMeE][Trp(1-Me,7-Cl)]K([CO-Piperazinyl(4-CH2COOH)])[Trp(1-Me)]TK(DOTA)C-NH2; thioether N-12), for which, under setting [1], the Kd was less than 1 nM. Same read-out and setting: for `CC(C)C[C@@H]1NC(=O)[C@H](CC(N)=O)NC(=O)[C@H](Cc2cccnc2)N(C)C(=O)[C@@H](Cc2cccc(C(N)=O)c2)NC(=O)CSC[C@@H](C(=O)N[C@H](CCCCNC(=O)CN2CCN(CC(=O)O)CCN(CC(=O)O)CCN(CC(=O)O)CC2)C(N)=O)NC(=O)[C@H](CC(N)=O)NC(=O)[C@H]([C@@H](C)O)NC(=O)[C@H](Cc2cn(C)c3ccccc23)NC(=O)[C@H](CCC(=O)NC[C@H](O)[C@@H](O)[C@H](O)[C@H](O)CO)NC(=O)[C@H](Cc2cn(C)c3c(Cl)cccc23)NC(=O)[C@H](Cc2cccnc2)N(C)C(=O)[C@H](CC(N)=O)NC1=O.[Lu+3]` [PDC_EphA2-00026424-C302] ({CH2CO}-[dPhe(3-CONH2)][NMe3Pal]NLN[NMe3Pal][Trp(1-Me,7-Cl)]E(NH(1-deoxy-D-glucityl))[Trp(1-Me)]TNC[dK](DOTA)-NH2; thioether N-12) the value was less than 1 nM. In the case of `CC(C)C[C@@H]1NC(=O)[C@H](CC(N)=O)NC(=O)[C@H](Cc2cccnc2)N(C)C(=O)[C@@H](C)NC(=O)CSC[C@@H](C(N)=O)NC(=O)[C@H](CCCC(N)=O)NC(=O)[C@H]([C@@H](C)O)NC(=O)[C@H](Cc2cn(C)c3ccccc23)NC(=O)[C@H](CCCCNC(=O)CN2CCN3CCN4CCN(CC2)CC(=O)[O][Lu]([O]C(=O)C3)[O]C(=O)C4)NC(=O)[C@H](Cc2cn(C)c3c(Cl)cccc23)NC(=O)[C@H](CCC(=O)O)N(C)C(=O)[C@H](CCCC(N)=O)NC1=O` [PDC_EphA2-00026632] ({CH2CO}-[dA][NMe3Pal]NL[Aad](NH2)[NMeE][Trp(1-Me,7-Cl)]K(DOTA(Lu))[Trp(1-Me)]T[Aad](NH2)C-NH2; thioether N-12), the Kd is less than 1 nM. With `C[C@H]1NC(=O)CSC[C@@H](C(=O)N[C@H](CCC(=O)O)C(=O)O)NC(=O)[C@H](CCCC(N)=O)NC(=O)[C@H]([C@@H](C)O)NC(=O)[C@H](Cc2cn(C)c3ccccc23)NC(=O)[C@H](CCCCNC(=O)N2CCN(CC(=O)O)CC2)NC(=O)[C@H](Cc2cn(C)c3c(Cl)cccc23)NC(=O)[C@H](CCC(=O)O)N(C)C(=O)[C@H](CCCCNC(=O)CN2CCN(CC(=O)O)CCN(CC(=O)O)CCN(CC(=O)O)CC2)NC(=O)[C@H](C2CCC2)NC(=O)[C@H](CC(N)=O)NC(=O)[C@H](Cc2cccnc2)N(C)C1=O.[Lu+3]` [PDC_EphA2-00027103] ({CH2CO}-[dA][NMe3Pal]N[Gly(cBu)]K(DOTA)[NMeE][Trp(1-Me,7-Cl)]K([CO-Piperazinyl(4-CH2COOH)])[Trp(1-Me)]T[Aad](NH2)C[dE]-OH; thioether N-12), under setting [1], the Kd is less than 1 nM.
